40 molecules from PMC10384010, “Chromatographic Data in Statistical Analysis of BBB Permeability Indices” (Membranes, 2023) can be followed below.

Holding throughout (assay type): physicochemical
Series [1] can be described thus: Normal-phase TLC on silica gel 60 F254 (Rf). The conditions noted are these: water:methanol:acetonitrile 60:20:20, ammonium acetate pH 7.4.
Series [2] can be described thus: Reversed-phase TLC on RP-2 silanized plates (Rf). The conditions noted are these: silica gel 60 RP-2 F254 silanized; water:methanol:acetonitrile 60:20:20, ammonium acetate pH 7.4.
Series [3] in a line: HPLC on IAM (immobilized artificial membrane) column, retention factor. The conditions noted are these: IAM.PC.DD.2 column; for k(IAM) retention factor: 10 mM phosphate buffer pH 7.4:acetonitrile 80:20; for logkIAM: logarithm of retention factor, phosphate buffer pH 7.4:acetonitrile 80:20.

Regarding `CCC(C)(C)C(=O)O[C@H]1C[C@@H](C)C=C2C=C[C@H](C)[C@H](CC[C@@H]3C[C@@H](O)CC(=O)O3)[C@H]21` [simvastatin], in series [1], the “NP (Rf from NP TLC plate)” value was found to be 0.19. Besides, the “RP (Rf from RP-2 TLC plate)” value in series [2] is listed as 0.66.

For the molecule `CCOC(=O)C1=C(COCCN)NC(C)=C(C(=O)OC)C1c1ccccc1Cl` (stereo not drawn) [amlodipine], the “RP (Rf from RP-2 TLC plate)” value in series [2] is recorded as 0.61. Also, in series [3], the “k(IAM) retention factor” value amounted to 98.90 and the logkIAM came to 2.00.

Take `O=C(O)COCCN1CCN([C@H](c2ccccc2)c2ccc(Cl)cc2)CC1` [levocetrizine]: the “NP (Rf from NP TLC plate)” value in series [1] was 0.63. The same molecule showed a logkIAM in series [3] of 0.58.

`O=C(O)c1cn(C2CC2)c2cc(N3CCNCC3)c(F)cc2c1=O` [ciprofloxacin]: in series [1], the “NP (Rf from NP TLC plate)” value was determined as 0.11. Besides, in series [2], the “RP (Rf from RP-2 TLC plate)” value was 0.38.

Turning to `Cc1cc2c(s1)Nc1ccccc1N=C2N1CCN(C)CC1` [olanzapine], in series [3], the “k(IAM) retention factor” value is given as 20.31 and the logkIAM worked out at 1.31.

As to `OC(Cn1cncn1)(Cn1cncn1)c1ccc(F)cc1F` [fluconazole], in series [1], the “NP (Rf from NP TLC plate)” value amounted to 0.87. In addition, the “RP (Rf from RP-2 TLC plate)” value in series [2] came out at 0.9.

In the case of PABA, in series [3], the “k(IAM) retention factor” value was found to be 0.01 and the logkIAM is given as -1.88.

On to `COCCCC/C(=N\OCCN)c1ccc(C(F)(F)F)cc1` [fluvoxamine], for which the “NP (Rf from NP TLC plate)” value in series [1] is 0.34.

On to `Oc1ncnc2[nH]ncc12` [allopurinnol], for which the “NP (Rf from NP TLC plate)” value in series [1] turned out to be 0.89. The “RP (Rf from RP-2 TLC plate)” value in series [2] is 0.97.

As for `CN1C(=O)C(O)N=C(c2ccccc2)c2cc(Cl)ccc21` (stereo not drawn) [temazepam], in series [3], the “k(IAM) retention factor” value came to 6.74 and the logkIAM was 0.83.

For the molecule `CCCCc1oc2ccccc2c1C(=O)c1cc(I)c(OCCN(CC)CC)c(I)c1` [amiodarone], the “RP (Rf from RP-2 TLC plate)” value in series [2] is given as 0.33.

For the molecule `Cn1c(=O)c2[nH]cnc2n(C)c1=O` [theophylline], in series [3], the “k(IAM) retention factor” value stood at 0.12 and the logkIAM is given as -0.94.

As to `Cc1nc2n(c(=O)c1CCN1CCC(c3noc4cc(F)ccc34)CC1)CCCC2` [risperidone], in series [3], the “k(IAM) retention factor” value is reported as 4.83 and the logkIAM was found to be 0.68.

As for `COc1cc2nc(N3CCN(C(=O)C4COc5ccccc5O4)CC3)nc(N)c2cc1OC` (stereo not drawn) [doxazosin], the “RP (Rf from RP-2 TLC plate)” value in series [2] turned out to be 0.75. In addition, in series [3], the “k(IAM) retention factor” value was 0.22 and the logkIAM is given as -0.66.

Consider `CC(C)NCC(O)COc1ccc(CC(N)=O)cc1` (stereo not drawn) [atenolol], for which, in series [1], the “NP (Rf from NP TLC plate)” value stood at 0.34. The “RP (Rf from RP-2 TLC plate)” value in series [2] is listed as 0.58.

As for `C[C@H]1O[C@@H](O[C@H]2[C@@H](O)C[C@H](O[C@H]3[C@@H](O)C[C@H](O[C@H]4CC[C@@]5(C)[C@H](CC[C@@H]6[C@@H]5C[C@@H](O)[C@]5(C)[C@@H](C7=CC(=O)OC7)CC[C@]65O)C4)O[C@@H]3C)O[C@@H]2C)C[C@H](O)[C@@H]1O` [digoxin], in series [3], the “k(IAM) retention factor” value was found to be 3.69 and the logkIAM is reported as 0.57.

Take `CC(C)NCC(O)COc1cccc2ccccc12` (stereo not drawn) [propranolol]: the “NP (Rf from NP TLC plate)” value in series [1] was 0.54. Also, in series [3], the “k(IAM) retention factor” value worked out at 28.09 and the logkIAM stood at 1.45.

Consider `COc1ccc2cc([C@H](C)C(=O)O)ccc2c1` [naproxen], for which the “NP (Rf from NP TLC plate)” value in series [1] amounted to 0.92. The “RP (Rf from RP-2 TLC plate)” value in series [2] is listed as 0.88.

Regarding `Cc1ccc(-c2nc3ccc(C)cn3c2CC(=O)N(C)C)cc1` [zolpidem], in series [3], the “k(IAM) retention factor” value was 2.60 and the logkIAM is on record as 0.42.

As for `CCN(CC)CCNC(=O)c1cc(Cl)c(N)cc1OC` [metoclopramide], in series [3], the “k(IAM) retention factor” value worked out at 6.16 and the logkIAM was determined as 0.79.

Regarding `CC(C)c1nc(N(C)S(C)(=O)=O)nc(-c2ccc(F)cc2)c1/C=C/[C@@H](O)C[C@@H](O)CC(=O)O` [rosuvastatin], the “NP (Rf from NP TLC plate)” value in series [1] is 0.9. Also, the “RP (Rf from RP-2 TLC plate)” value in series [2] is on record as 0.92. Further, in series [3], the “k(IAM) retention factor” value was 0.96 and the logkIAM is given as -0.02.

As to `CC(N)C12CC3CC(CC(C3)C1)C2` (stereo not drawn) [rimantadine], the “NP (Rf from NP TLC plate)” value in series [1] is 0.92. In addition, the “RP (Rf from RP-2 TLC plate)” value in series [2] is 0.95.

For the molecule `Nc1cc(N2CCCCC2)nc(N)[n+]1[O-]` [minoxidil], the “NP (Rf from NP TLC plate)” value in series [1] is 0.43.

On to `CC(C)(O)c1ccccc1CC[C@@H](SCC1(CC(=O)O)CC1)c1cccc(/C=C/c2ccc3ccc(Cl)cc3n2)c1` [montelukast], for which, in series [3], the “k(IAM) retention factor” value is 99.10 and the logkIAM was 2.00.

`C[C@H](CS)C(=O)N1CCC[C@H]1C(=O)O` [captopril]: the “NP (Rf from NP TLC plate)” value in series [1] is 0.77. For the same molecule, in series [3], the “k(IAM) retention factor” value was found to be 0.01 and the logkIAM was -2.19.

As to `NC(N)=Nc1nc(CSCCC(N)=NS(N)(=O)=O)cs1` [famotidine], the “NP (Rf from NP TLC plate)” value in series [1] stood at 0.7. In addition, in series [2], the “RP (Rf from RP-2 TLC plate)” value was found to be 0.98.

For the molecule `Cc1cnc(NC(=O)C2=C(O)c3ccccc3S(=O)(=O)N2C)s1` [meloxicam], the “NP (Rf from NP TLC plate)” value in series [1] is 0.99. Also, in series [3], the “k(IAM) retention factor” value came to 0.49 and the logkIAM is -0.31.

Consider `O=C1CC2(CCCC2)CC(=O)N1CCCCN1CCN(c2ncccn2)CC1` [buspirone], for which the “NP (Rf from NP TLC plate)” value in series [1] is given as 0.57. For the same molecule, in series [3], the “k(IAM) retention factor” value was 7.00 and the logkIAM was found to be 0.84.

In the case of `Cc1ccc(O)c([C@H](CCN(C(C)C)C(C)C)c2ccccc2)c1` [tolterodine], in series [3], the “k(IAM) retention factor” value amounted to 0.21 and the logkIAM was -0.68.

Consider `CCC1(c2ccccc2)C(=O)NCNC1=O` [primidone], for which the “NP (Rf from NP TLC plate)” value in series [1] is listed as 0.9. Also, in series [2], the “RP (Rf from RP-2 TLC plate)” value is on record as 0.93.

Consider `Clc1ccc2c(c1)CCc1cccnc1C2=C1CCNCC1` [desloratidine], for which, in series [3], the “k(IAM) retention factor” value came to 50.45 and the logkIAM is recorded as 1.70.

For gentamycin, in series [1], the “NP (Rf from NP TLC plate)” value is recorded as 0.96. Further, the “RP (Rf from RP-2 TLC plate)” value in series [2] is given as 0.911.

As for `CC(C(=O)O)c1cccc(C(=O)c2ccccc2)c1` (stereo not drawn) [ketoprofen], in series [3], the “k(IAM) retention factor” value turned out to be 0.20 and the logkIAM is on record as -0.71.

Regarding `Cn1c(=O)c2c(ncn2C)n(C)c1=O` [caffeine], the “NP (Rf from NP TLC plate)” value in series [1] is given as 0.82. Moreover, in series [3], the “k(IAM) retention factor” value was determined as 0.18 and the logkIAM is -0.75.

As to `CCCNCC(O)COc1ccccc1C(=O)CCc1ccccc1` (stereo not drawn) [propafenone], the “NP (Rf from NP TLC plate)” value in series [1] is 0.57. The “RP (Rf from RP-2 TLC plate)” value in series [2] was 0.56.

As to `CC(C)c1c(C(=O)Nc2ccccc2)c(-c2ccccc2)c(-c2ccc(F)cc2)n1CC[C@@H](O)C[C@@H](O)CC(=O)O` [atorvastatin], in series [2], the “RP (Rf from RP-2 TLC plate)” value stood at 0.8.

For `CN(C)CCCN1c2ccccc2CCc2ccc(Cl)cc21` [clomipramine], the “NP (Rf from NP TLC plate)” value in series [1] stood at 0.33.

As for `CN[C@@H](C)[C@@H](O)c1ccccc1` [pseudoephedrine], in series [3], the “k(IAM) retention factor” value came out at 2.21 and the logkIAM amounted to 0.34.

`CN(C)C(=O)C(CCN1CCC(O)(c2ccc(Cl)cc2)CC1)(c1ccccc1)c1ccccc1` [loperamide]: in series [1], the “NP (Rf from NP TLC plate)” value is recorded as 0.68. Moreover, the “RP (Rf from RP-2 TLC plate)” value in series [2] was 0.75.

With `CC(C)Cc1ccc(C(C)C(=O)O)cc1` (stereo not drawn) [ibuprofen], in series [3], the “k(IAM) retention factor” value is on record as 0.86 and the logkIAM is -0.07.
